Assay results from patent publication US20210251991A1, “SUBSTITUTED 2,2'-BIPYRIMIDINYL COMPOUNDS, ANALOGUES THEREOF, AND METHODS USING SAME” (priority 2018, published 2021).

Tested on: HBsAg in HepG2.2.15 cells
Experiment: HBsAg assay: inhibition of HBsAg in HepG2.2.15 cells (chemiluminescence immunoassay of supernatant)
Type: cell-based, hepatitis B virus
Conditions: Hepatitis B virus, HepG2.2.15, 144 h, read-out: sAg EC50, HepG2.2.15 cells, supernatant collected at day 6 after exposure, HBsAg CLIA
How it was run: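 HepG2.2.15 cells treated with serially diluted compounds (0.5% DMSO), medium and compound refreshed after 2-3 days; supernatant HBsAg measured by chemiluminescence immunoassay at day 6. EC50 from dose-response curves; viability assessed in parallel by CellTiter-Glo.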

Going from CCC1c2ccc(F)c(F)c2CCN1c1cc(=O)c(C(=O)O)c[nH]1 (stereo not drawn) [Example 112, 6-(1-Ethyl-5,6-difluoro-3,4-dihydro-1H-isoquinolin-2-yl)-4-hydroxy-pyridine-3-carboxylic Acid] to CCC1c2ccc(F)c(OC)c2CCN1c1ccnc(-c2ncccn2)n1 (stereo not drawn) [Example 46, 1-Ethyl-6-fluoro-5-methoxy-2-(2-pyrimidin-2-ylpyrimidin-4-yl)-3,4-dihydro-1H-isoquinoline], the EC50 falls from 11000 nM to 130 nM (85-fold).

Compared with CC1c2ccc(F)c(F)c2CCN1c1cnc2c(ccc3cccnc32)c1 (stereo not drawn) [Example 123, 3-(5,6-Difluoro-1-methyl-3,4-dihydroisoquinolin-2(1H)-yl)-1,10-phenanthroline], CCC1c2cc(F)c(OC)cc2CCN1c1cnc(-c2ncccn2)nc1 (stereo not drawn) [Example 132, 2-(2,2′-Bipyrimidin-5-yl)-1-ethyl-7-fluoro-6-methoxy-1,2,3,4-tetrahydroisoquinoline] is 63-fold lower in EC50: 440 nM for the first, 7 nM for the second. The second is the more potent here.

Going from CCC1Cc2ccccc2CN1c1ccnc(-c2ncccn2)n1 (stereo not drawn) [Example 8, 2-([2,2′-Bipyrimidin]-4-yl)-3-ethyl-1,2,3,4-tetrahydroisoquinoline] to CC1CN(c2ccnc(-c3ncccn3)n2)Cc2ccccc21 (stereo not drawn) [Example 15, 2-([2,2′-Bipyrimidin]-4-yl)-4-methyl-1,2,3,4-tetrahydroisoquinoline], the EC50 falls from 2300 nM to 1100 nM (2.1-fold).

Going from CCC1c2cc(F)c(F)cc2CN1c1cnc(C(N)=O)nc1 (stereo not drawn) [Example 119, 5-(1-Ethyl-5,6-difluoroisoindolin-2-yl)pyrimidine-2-carboxamide] to CCC1c2cc(F)c(OC)cc2CCN1c1cnc(C(N)=O)nc1 (stereo not drawn) [Example 118, 5-(1-Ethyl-7-fluoro-6-methoxy-3,4-dihydro-1H-isoquinolin-2-yl)pyrimidine-2-carboxamide], the EC50 falls from 42000 nM to 520 nM (81-fold). The second is the more potent here.

Going from CCC1c2cc(OC)c(F)cc2CN1c1ccnc(-c2ncccn2)n1 (single isomer, unassigned) [Example 77, 2-([2,2′-Bipyrimidin]-4-yl)-1-ethyl-5-fluoro-6-methoxyisoindoline] to CCC1c2cc(F)c(OC)cc2CCN1c1ccnc(-c2ncccn2)n1 (stereo not drawn) [Example 127, 2-(2,2′-Bipyrimidin-4-yl)-1-ethyl-7-fluoro-6-methoxy-1,2,3,4-tetrahydroisoquinoline], the EC50 falls from 110 nM to 20 nM (5.5-fold).

Same assay, conditions: read-out: sAg EC50; HepG2.2.15 cells, supernatant collected at day 6 after exposure, HBsAg CLIA

First: CCC1c2cc(OC)c(OC)cc2CN1c1ccnc(-c2ncccn2)n1 (single isomer, unassigned) [Example 57, 2-([2,2′-Bipyrimidin]-4-yl)-1-ethyl-5,6-dimethoxyisoindoline]
Second: CCC1c2cc(F)c(F)cc2CN1c1ccnc(-c2ncccn2)n1 (single isomer, unassigned) [Example 49, 2-([2,2′-Bipyrimidin]-4-yl)-1-ethyl-5,6-difluoroisoindoline]
The EC50 of the first is 1.7-fold higher: 76 nM for the first, 44 nM for the second. The second is the more potent here.

Compared with CCC1c2cc(F)c(OC)cc2CN1c1cnc(C(=O)Nc2ccccn2)nc1 (single isomer, unassigned) [Example 107, 5-(1-Ethyl-6-fluoro-5-methoxyisoindolin-2-yl)-N-(pyridin-2-yl)pyrimidine-2-carboxamide], CCC1c2cc(F)c(OC)cc2CN1c1cnc(C(=O)O)nc1 (single isomer, unassigned) [Example 100, 5-(1-Ethyl-6-fluoro-5-methoxyisoindolin-2-yl)pyrimidine-2-carboxylic Acid] is 240-fold lower in EC50: 49000 nM for the first, 200 nM for the second. The second is the more potent here.

Compared with CCC1c2cc(F)c(F)cc2CN1c1cnc(C(=O)O)nc1 (single isomer, unassigned) [Example 116, 5-(1-Ethyl-5,6-difluoroisoindolin-2-yl)pyrimidine-2-carboxylic Acid], CCC1c2cc(F)c(OC)cc2CN1c1nc(-c2ncccn2)ncc1C (single isomer, unassigned) [Example 68, 1-Ethyl-6-fluoro-5-methoxy-2-(5-methyl-[2,2′-bipyrimidin]-4-yl)isoindoline] is 1500-fold lower in EC50: 3000 nM for the first, 2 nM for the second.

Going from CCC1c2cc(OC)c(F)c(F)c2CCN1c1cnc(-c2ncccn2)nc1 (single isomer, unassigned) [Example 31, 1-Ethyl-5,6-difluoro-7-methoxy-2-(2-pyrimidin-2-ylpyrimidin-5-yl)-3,4-dihydro-1H-isoquinoline] to CCC1c2ccccc2CCN1c1cnc(-c2ncccn2)nc1 (single isomer, unassigned) [Example 12, 2-([2,2′-Bipyrimidin]-5-yl)-1-ethyl-1,2,3,4-tetrahydroisoquinoline], the EC50 falls from 1200 nM to 190 nM (6.3-fold).
